# Reference: patent US20190374509A1, “Methods of Using Metamizole for Treatment of Pyrexia in Equines” (Kindred Biosciences, Inc., priority 2018, published 2019)
# Columns and labels:
# horses [1] = assay: Margin of safety study, IV three times daily for 9 days: clinical pathology (serum chemistry, hematology, urinalysis), body weight, physical examination; format: in vivo
# Protocol: A study was conducted to evaluate the margin of safety of metamizole when administered intravenously to horses for 9 days at doses of 0 mg/kg (0×), 30 mg/kg (1×), 60 mg/kg (2×), and 90 mg/kg (3×) of body weight three times daily (TID), every 8 hours±30 min.
# This was a prospective, blinded, randomized, placebo-controlled, parallel-group laboratory study in research horses. Thirty-two horses were enrolled in the study (Table 1).
# Treatment phase involved administration of the investigational drug or placebo. The investigational drug was a sterile injectable formulation of dipyrone (Zimeta™, Corden Pharma, Caponago, Italy) (500 mg/mL) in 100 mL glass bottles. The placebo was sterile injectable saline (Nova-Tech Inc, Grand Island, NE) (0.9% sodium chloride) in 500 mL plastic bottles labeled for veterinary use. Dipyrone treatment groups were 30 mg/kg (1×), 60 mg/kg (2×), and 90 mg/kg (3×). Placebo treatment group was saline administered at a volume to match the 3× dipyrone group (0×). The dose was calculated based on body weight and administered three times daily for nine consecutive days. Due to the large volume of injection at the higher dose groups, treatment was administered via indwelling intravenous (IV) catheters. Intravenous catheters were placed using standard techniques. Horses were sedated with xylazine (AnaSed® LA, VetOne, MWI, Boise, Id.) and the skin was desensitized with subcutaneous injection of lidocaine (VetOne, MWI, Boise, Id.). Intravenous catheters were replaced at the discretion of the study director and were maintained with heparinized saline flush prior to and following dose administration.
# Randomization occurred on Study Day −1. […] .
# All statistical analyses were performed using SAS, version 9.4 (SAS Institute, Cary, N.C.). The individual horse was the experimental unit in the statistical analysis. For statistical modeling, all main effects, interaction terms, and pairwise comparisons of the active groups (dipyrone) with the placebo group were assessed at the two-sided 0.10 significance level (unadjusted) with the exception of the three-way interaction, which was assessed at the two-sided 0.05 significance level (unadjusted).
# For continuous endpoints with repeated post-treatment measurements (serum chemistry, coagulation, hematology, urinalysis, body weight, body temperature, heart rate and respiratory rate), repeated measurement analysis of covariance (SAS MIXED procedure RMANCOVA) was used to evaluate a model including treatment, time, sex, treatment by sex interaction, treatment by time interaction, and treatment by time by sex three-way interaction as fixed effects. In addition, baseline values were included as a covariate and remained in the model regardless of its significance. Baseline values were defined as the values prior to and nearest to the first dosing.
# horses [2] = assay: Pyrexia efficacy Study 2 (masked, randomized, placebo controlled, crossover, rectal temperature); format: in vivo; details: for Mean (standard deviation) temperature: 30 mg/kg IV single dose
# Protocol: Study 2: The masked, randomized, placebo controlled laboratory study was conducted at a clinical research organization in the United States. IACUC approval was obtained prior to the conduct of the study. Horses one year of age or older were comingled by the Investigator in order to facilitate transmission of respiratory infections. Horses were monitored by the study staff for elevation of rectal temperature. […] Unblinded dose administrators administered the study drug (Phase 1). A single dose of study drug was administered. Treatment was either dipyrone (30 mg/kg IV) or placebo (saline, matched volume, IV). Blinded personnel recorded the rectal temperature at 4 and 6 hours post-treatment administration. Twenty-four hours following Dose 1 horses were monitored for rectal temperature. Horses with rectal temperature≥102.0° F. were crossed over to the other treatment group. Unblinded dose administrators administered the study drug (Phase 2), and blinded personnel recorded the rectal temperature 4 and 6 hours post-treatment administration. […] Blinding was maintained until the completion of the statistical analysis.
# In both studies horses were assessed daily to determine overall safety. Medications that could have impacted the temperature or the underlying cause of the disease were not permitted in either study; however, horses in both studies were eligible for rescue at the discretion of the Investigator. Following completion of the study, the Investigator treated the horses with standard of care for the type, and severity, of clinical signs. Statistical analysis was performed with the Wilcoxon rank sum test (SAS®, SAS Institute, Cary N.C., version 9.4).
# [3] = 1X, 30 mg/kg IV every 8 hours, Day 4
# [4] = 1X, 30 mg/kg IV every 8 hours, Day 8
# [5] = 1X, 30 mg/kg IV every 8 hours, Mares
# [6] = 2X, 60 mg/kg IV every 8 hours, Day 4
# [7] = 2X, 60 mg/kg IV every 8 hours, Day 8
# [8] = 2X, 60 mg/kg IV every 8 hours, Mares
# [9] = 3X, 90 mg/kg IV every 8 hours, Day 4
# [10] = 3X, 90 mg/kg IV every 8 hours, Day 8
# [11] = 3X, 90 mg/kg IV every 8 hours, Mares
smiles,measurement,setting,value
"Cc1c(N(C)CS(=O)(=O)O)c(=O)n(-c2ccccc2)n1C [dipyrone, [(2,3-dihydro-1,5-dimethyl-3-oxo-2-phenyl-1H-pyrazol-4-yl)methylamino] methanesulfonic acid]",Absolute Basophil Count Day 4 Range,horses [1]; [3],0.00-0.19 cells 10^3/μL
same,Cholesterol Day 4 Range,horses [1]; [3],54 to 77 mg/dL
same,Cholesterol LS Means,horses [1]; [3],65.352 mg/dL
same,Creatinine Day 4 Range,horses [1]; [3],0.9 to 2.0 mg/dL
same,Mean Corpuscular Hemoglobin Concentration Day 4 Range,horses [1]; [3],34.9 to 36.1 g/dL
same,Mean Corpuscular Volume Day 4 Range,horses [1]; [3],40.8 to 48.7 fL
same,Mean Corpuscular Volume LS Means,horses [1]; [3],46.512 fL
same,Percent Basophil Day 4 Range,horses [1]; [3],0.0-2.3%
same,Total Bilirubin Day 4 Range,horses [1]; [3],0.8 to 3.4 mg/dL
same,Total Bilirubin LS Means,horses [1]; [3],2.301 mg/dL
same,Absolute Basophil Count Day 8 Range,horses [1]; [4],0.00-0.52 cells 10^3/μL
same,Cholesterol Day 8 Range,horses [1]; [4],64 to 87 mg/dL
same,Creatinine Day 8 Range,horses [1]; [4],0.6 to 1.6 mg/dL
same,Creatinine LS Means,horses [1]; [4],1.118 mg/dL
same,Mean Corpuscular Hemoglobin Concentration Day 8 Range,horses [1]; [4],34.1 to 39.4 g/dL
same,Mean Corpuscular Hemoglobin Concentration LS Means,horses [1]; [4],35.513 g/dL
same,Mean Corpuscular Volume Day 8 Range,horses [1]; [4],40.8 to 49.3 fL
same,Mean Corpuscular Volume LS Means,horses [1]; [4],47.000 fL
same,Percent Basophil Day 8 Range,horses [1]; [4],0.0-2.6%
same,Total Bilirubin Day 8 Range,horses [1]; [4],1.7 to 4.1 mg/dL
same,Total Bilirubin LS Means,horses [1]; [4],2.914 mg/dL
same,Percent Basophil LS Means,"horses [1]; 1X, 30 mg/kg IV every 8 hours, Geldings",0.849%
same,Absolute Basophil Count LS Means,horses [1]; [5],0.200 cells 10^3/μL
same,Percent Basophil LS Means,horses [1]; [5],1.374%
same,Absolute Basophil Count Day 4 Range,horses [1]; [6],0.00-0.12 cells 10^3/μL
same,Cholesterol Day 4 Range,horses [1]; [6],43 to 74 mg/dL
same,Cholesterol LS Means,horses [1]; [6],56.772 mg/dL
same,Creatinine Day 4 Range,horses [1]; [6],1.1 to 2.0 mg/dL
same,Mean Corpuscular Hemoglobin Concentration Day 4 Range,horses [1]; [6],34.2 to 36.1 g/dL
same,Mean Corpuscular Volume Day 4 Range,horses [1]; [6],41.7 to 49.4 fL
same,Mean Corpuscular Volume LS Means,horses [1]; [6],46.284 fL
same,Percent Basophil Day 4 Range,horses [1]; [6],0.0-1.3%
same,Total Bilirubin Day 4 Range,horses [1]; [6],1.6 to 4.0 mg/dL
same,Total Bilirubin LS Means,horses [1]; [6],2.745 mg/dL
same,Absolute Basophil Count Day 8 Range,horses [1]; [7],0.00-0.21 cells 10^3/μL
same,Cholesterol Day 8 Range,horses [1]; [7],52 to 87 mg/dL
same,Creatinine Day 8 Range,horses [1]; [7],0.6 to 1.4 mg/dL
same,Creatinine LS Means,horses [1]; [7],0.958 mg/dL
same,Mean Corpuscular Hemoglobin Concentration Day 8 Range,horses [1]; [7],32.9 to 35.5 g/dL
same,Mean Corpuscular Hemoglobin Concentration LS Means,horses [1]; [7],34.080 g/dL
same,Mean Corpuscular Volume Day 8 Range,horses [1]; [7],43.2 to 50.8 fL
same,Mean Corpuscular Volume LS Means,horses [1]; [7],47.134 fL
same,Percent Basophil Day 8 Range,horses [1]; [7],0.0-2.7%
same,Total Bilirubin Day 8 Range,horses [1]; [7],1.6 to 6.1 mg/dL
same,Total Bilirubin LS Means,horses [1]; [7],4.495 mg/dL
same,Percent Basophil LS Means,"horses [1]; 2X, 60 mg/kg IV every 8 hours, Geldings",0.949%
same,Absolute Basophil Count LS Means,horses [1]; [8],0.059 cells 10^3/μL
same,Percent Basophil LS Means,horses [1]; [8],0.520%
same,Absolute Basophil Count Day 4 Range,horses [1]; [9],0.00-0.39 cells 10^3/μL
same,Cholesterol Day 4 Range,horses [1]; [9],43 to 73 mg/dL
same,Cholesterol LS Means,horses [1]; [9],54.144 mg/dL
same,Creatinine Day 4 Range,horses [1]; [9],1.1 to 2.1 mg/dL
same,Mean Corpuscular Hemoglobin Concentration Day 4 Range,horses [1]; [9],34.3 to 36.0 g/dL
same,Mean Corpuscular Volume Day 4 Range,horses [1]; [9],43.0 to 50.4 fL
same,Mean Corpuscular Volume LS Means,horses [1]; [9],46.560 fL
same,Percent Basophil Day 4 Range,horses [1]; [9],0.0-4.0%
same,Total Bilirubin Day 4 Range,horses [1]; [9],1.7 to 5.5 mg/dL
same,Total Bilirubin LS Means,horses [1]; [9],3.074 mg/dL
same,Absolute Basophil Count Day 8 Range,horses [1]; [10],0.00-0.41 cells 10^3/μL
same,Cholesterol Day 8 Range,horses [1]; [10],55 to 96 mg/dL
same,Creatinine Day 8 Range,horses [1]; [10],0.7 to 1.6 mg/dL
same,Creatinine LS Means,horses [1]; [10],1.144 mg/dL
same,Mean Corpuscular Hemoglobin Concentration Day 8 Range,horses [1]; [10],33.1 to 34.5 g/dL
same,Mean Corpuscular Hemoglobin Concentration LS Means,horses [1]; [10],33.899 g/dL
same,Mean Corpuscular Volume Day 8 Range,horses [1]; [10],43.8 to 51.3 fL
same,Mean Corpuscular Volume LS Means,horses [1]; [10],47.708 fL
same,Percent Basophil Day 8 Range,horses [1]; [10],0.0-2.1%
same,Total Bilirubin Day 8 Range,horses [1]; [10],2.8 to 6.2 mg/dL
same,Total Bilirubin LS Means,horses [1]; [10],4.579 mg/dL
same,Percent Basophil LS Means,"horses [1]; 3X, 90 mg/kg IV every 8 hours, Geldings",0.924%
same,Absolute Basophil Count LS Means,horses [1]; [11],0.188 cells 10^3/μL
same,Percent Basophil LS Means,horses [1]; [11],1.731%
same,"Urinalysis, body weights, and physical examination parameters","horses [1]; 30, 60, 90 mg/kg IV every 8 hours for 9 days vs placebo",No significant differences
same,Mean (standard deviation) temperature,"horses [2]; Phase 1, hour 4",100.0 ° F.
same,Mean (standard deviation) temperature,"horses [2]; Phase 1, hour 6",100.8 ° F.
same,Mean (standard deviation) temperature,"horses [2]; Phase 2 (crossover), hour 4",100.4 ° F.
same,Mean (standard deviation) temperature,"horses [2]; Phase 2 (crossover), hour 6",100.8 ° F.
same,Rectal temperature compared to controls,"horses [2]; 30 mg/kg IV, both phases, Hour 4, p<0.0001",significantly lowered rectal temperatures
